Assay results taken from ChEMBL document CHEMBL5108066, “Structure-Guided Discovery of Potent Antifungals that Prevent Ras Signaling by Inhibiting Protein Farnesyltransferase” (J Med Chem, 2022).
pIC50: −log10 of the molar value. In brackets after ≈: the same amount, converted by molar mass. Activity calls are given as the source filed them. The rule behind the calls is not given here.

How the values were obtained:
Cryptococcus neoformans [1] = test: Antifungal activity against Cryptococcus neoformans H99 assessed as decrease in cell viability by measuring metabolic activity incubated for 72 hrs by alamar blue staining based broth dilution method; type: functional
[2] = Inhibition of Cryptococcus neoformans farnesyltransferase assessed as inhibition of farnesylation of dansyl-GCVVM peptide using fluorescent peptide dansyl-GCVVM and 1uM farnesyl diphosphate as substrate by fluorescence assay
Cryptococcus neoformans [3] = test: Inhibition of biofilm formation in Cryptococcus neoformans H99 incubated for 3 days by alamar blue staining based microtiter plate reader assay; type: functional; conditions: H99, 72 h, time 3 day
Cryptococcus neoformans [4] = test: Uncompetitive type inhibition of Cryptococcus neoformans farnesyltransferase assessed as inhibition constant using FPP in presence of 10 mM phosphate and fluorescent peptide dansyl-GCVVM as substrate by steady-state kinetic analysis
[5] = Inhibition of rat farnesyltransferase assessed as inhibition of farnesylation of dansyl-GCVVM peptide using fluorescent peptide dansyl-GCVVM and 1uM farnesyl diphosphate as substrate by fluorescence assay
[6] = Cytotoxicity against mouse J774.A1 cells assessed as inhibition of cell viability measured at 24 hrs by AlamarBlue staining based cell viability assay; type: toxicity; conditions: read-out: MIC
Cryptococcus neoformans [7] = test: Fungicidal activity against Cryptococcus neoformans H99 assessed as reduction in colonies incubated for 48 hrs by disk diffusion method; type: functional, organism-based
[8] = system: Schizosaccharomyces pombe; test: Antifungal activity against Schizosaccharomyces pombe efflux-defective strain MJ-1682 assessed as inhibition of fungal growth by broth microdilution method; type: functional
Cryptococcus neoformans [9] = test: Uncompetitive type inhibition of Cryptococcus neoformans farnesyltransferase assessed as inhibition constant using farnesyl diphosphate and fluorescent peptide dansyl-GCVVM as substrate by steady-state kinetic analysis

| SMILES | MIC (Cryptococcus neoformans [1]) | pIC50 [2] | also measured |
| --- | --- | --- | --- |
| CCCC[C@H]1CN(c2ccccc2)C(=O)CN1Cc1cncn1Cc1ccc(Br)cc1 | 50 µM (≈ 24.1 µg/mL) | 6.04 | – |
| CCCC[C@H]1CN(c2cccc(OC(F)(F)F)c2)C(=O)CN1Cc1cncn1Cc1ccc(C#N)c(Oc2ccccc2)c1 | 50 µM (≈ 30.2 µg/mL) | 6.82 | – |
| CCCC[C@H]1CN(c2cccc(OC(F)(F)F)c2)C(=O)CN1Cc1cncn1Cc1ccc(Cl)cc1 | 6 µM (≈ 3.13 µg/mL) | 6.59 | – |
| CCCC[C@H]1CN(c2cccc(OC(F)(F)F)c2)C(=O)CN1Cc1cncn1Cc1ccc(F)cc1 | 12 µM (≈ 6.05 µg/mL) | 6.15 | – |
| N#Cc1cc(Cn2cncc2CN2CCN(c3cccc(OC(F)(F)F)c3)C(=O)C2)ccc1F | 50 µM (≈ 23.7 µg/mL) | 6.26 | – |
| CCCC[C@H]1CN(c2cccc(OC(F)(F)F)c2)C(=O)CN1Cc1cncn1Cc1ccc(Br)cc1 | 3 µM (≈ 1.7 µg/mL) | 6.72 | MIC (Cryptococcus neoformans [3]): 12.5 µM (≈ 7.07 µg/mL); K (Cryptococcus neoformans [4]): 500 nM; pIC50 [5]: 8.70; MCC at 24 h [6]: 300 µM; Activity (Cryptococcus neoformans [7]): Active; MIC [8]: 1.5 µM (≈ 0.848 µg/mL); K (Cryptococcus neoformans [9]): 750 nM |
| CCCC[C@H]1CN(c2cccc(Cl)c2)C(=O)CN1Cc1cncn1Cc1ccc(C#N)cc1 | 50 µM (≈ 23.1 µg/mL) | 7.00 | – |
| CCCC[C@H]1CN(c2cccc(OC(F)(F)F)c2)C(=O)CN1Cc1cncn1Cc1ccc(Oc2ccccc2)c(C#N)c1 | 50 µM (≈ 30.2 µg/mL) | 6.68 | – |
| CCCC[C@H]1CN(c2cccc(OC(F)(F)F)c2)C(=O)CN1Cc1cncn1Cc1cccc(C#N)c1 | 50 µM (≈ 25.6 µg/mL) | 6.13 | – |
| N#Cc1ccc(Cn2cncc2CN2CCN(c3cccc(Cl)c3)C(=O)C2)cc1 [L-778123 FREE BASE] | 100 µM (≈ 40.6 µg/mL) | – | pIC50 [5]: 7.22 |
| CCCC[C@H]1CN(c2cccc(OC(F)(F)F)c2)C(=O)CN1Cc1cncn1Cc1ccc(F)c(C#N)c1 | 50 µM (≈ 26.5 µg/mL) | 6.74 | – |
| CCCC[C@H]1CN(c2cccc(Cl)c2)C(=O)CN1Cc1cncn1Cc1ccc(Br)cc1 | 12 µM (≈ 6.19 µg/mL) | 5.96 | – |
| N#Cc1ccc(Cn2cncc2CN2CCN(c3cccc(OC(F)(F)F)c3)C(=O)C2)cc1Oc1ccccc1 | 50 µM (≈ 27.4 µg/mL) | 5.59 | – |
| N#Cc1ccc(Cn2cncc2CN2CCN(c3cccc(OC(F)(F)F)c3)C(=O)C2)cc1F | 50 µM (≈ 23.7 µg/mL) | 6.92 | – |
| CCC[C@H]1CN(c2cccc(OC(F)(F)F)c2)C(=O)CN1Cc1cncn1Cc1ccc(Br)cc1 | 6 µM (≈ 3.31 µg/mL) | 5.96 | – |
| CCCC[C@H]1CN(c2cccc(Cl)c2)C(=O)CN1Cc1cncn1Cc1ccc(Cl)cc1 | 25 µM (≈ 11.8 µg/mL) | 5.80 | – |
| N#Cc1ccc(Cn2cncc2CN2CCN(c3cccc(OC(F)(F)F)c3)C(=O)C2)cc1 | 50 µM (≈ 22.8 µg/mL) | 5.57 | – |
| CCCC[C@H]1CN(c2cccc(C)c2C)C(=O)CN1Cc1cncn1Cc1ccc(C#N)cc1 | 50 µM (≈ 22.8 µg/mL) | 5.66 | – |
| CCCC[C@H]1CN(c2cccc(OC(F)(F)F)c2)C(=O)CN1Cc1cncn1Cc1ccccc1 | 25 µM (≈ 12.2 µg/mL) | 5.72 | – |
| N#Cc1cc(Cn2cncc2CN2CCN(c3cccc(OC(F)(F)F)c3)C(=O)C2)ccc1Oc1ccccc1 | 50 µM (≈ 27.4 µg/mL) | 6.49 | – |
| CCCC[C@H]1CN(c2cccc(OC(F)(F)F)c2)C(=O)CN1Cc1cncn1Cc1ccc(C#N)cc1 | 12 µM (≈ 6.14 µg/mL) | 6.47 | – |
| CCCCC[C@H]1CN(c2cccc(OC(F)(F)F)c2)C(=O)CN1Cc1cncn1Cc1ccc(Br)cc1 | 3 µM (≈ 1.74 µg/mL) | 6.80 | – |
| CCCC[C@H]1CN(c2cccc(OC(F)(F)F)c2)C(=O)CN1Cc1cncn1Cc1ccc(C#N)c(F)c1 | 50 µM (≈ 26.5 µg/mL) | 7.40 | K (Cryptococcus neoformans [4]): 4.2 nM; K (Cryptococcus neoformans [9]): 4.9 nM |
| CCCC[C@H]1CN(c2cccc(OC(F)(F)F)c2)C(=O)CN1Cc1cncn1Cc1ccc(C(F)(F)F)cc1 | 6 µM (≈ 3.33 µg/mL) | 6.55 | – |
